Data from patent US10669300B2, “Methods of separating gemcitabine-phosphate diastereoisomers” (NuCana plc, priority 2014, dated 2020).

Columns and labels:
Solubility in water = type: physicochemical; conditions: regardless of salt content or pH
Description: It also has implications for the development of efficient manufacturing processes which will allow NUC-1031 to be produced cost effectively.

[1] = Crystallisation optimisation: slurries in acetonitrile and isopropanol, epimers in solution; type: physicochemical; conditions: 20° C., 200 mg 33:67 (R):(S) mixture
Protocol: The enrichment provided by acetonitrile and isopropanol were evaluated at a range of concentrations and temperatures (see Table 2). Two types of experiments were conducted: simple slurries (20° C.) in different volumes and slurries/recrystallisations at 80° C. For the experiments 200 mg of the diastereomeric mixture (33:67 (R):(S)) was suspended in the solvents and volume indicated below and optionally heated to reflux and cooled to 20° C. The suspensions were stirred overnight and isolated. The relative proportions of the two epimers present in both the solution and in the solid cake were determined by HPLC.

[2] = as above; type: physicochemical; conditions: 83° C. (heated to reflux, cooled to 20° C.), 200 mg 33:67 (R):(S) mixture
[3] = Solvent screening: amounts of the two epimers in solution after slurrying NUC-1031 mixture; type: physicochemical; conditions: for epimer in solution: 33:67 (R):(S) mixture in 1 mL, stirred overnight
Protocol: First a solvent screening was conducted with 17 different solvents (see Table 1). Approximately 25 mg of a diastereomeric mixture (33:67 (R):(S)) of NUC-1031 was suspended in the listed solvents (1 mL) and stirred overnight. In case dissolution occurred more solid was added. The suspensions were sedimented and the relative amounts of the two diastereoisomers in solution was determined by HPLC.

[4] = Solubility in mixtures of polar organic solvents with water; type: physicochemical
Description: It has recently been discovered that the (S)-epimer 3 of gemcitabine-[phenyl-benzoxy-L-alaninyl)]-phosphate has sufficient solubility in mixtures of a number of polar organic solvents with water to render it suitable for formulation and administration as a therapeutic agent. […] In certain solvent mixtures the difference in solubility between the (S)-epimer and the (R)-epimer is over 100 fold. It is expected therefore that more clinically effective, practical and patient friendly administration methods can be developed using the (S)-epimer than can be developed using the (R)-epimer or using the mixture. It is thus desirable to be able to provide gemcitabine-[phenyl-benzoxy-L-alaninyl)]-(S)-phosphate 3 in substantially diastereoisomerically pure form.

[5] = system: isolated human hepatic cells; test: Half-life on incubation with isolated human hepatic cells; type: in vitro ADME
Description: The longer half-life associated with (R)-isomer indicates a lower intrinsic clearance and should result in a different pharmacokinetic and pharmacodynamic profile to the (S)-isomer which may offer some benefits.

Row | SMILES | epimer in solution ([1]; ACN solution, 5 mL) [mg/mL] | epimer in solution ([1]; ACN solution, 10 mL) [mg/mL] | epimer in solution ([1]; ACN solution, 15 mL) [mg/mL] | epimer in solution ([1]; IPA solution, 5 mL) [mg/mL] | epimer in solution ([1]; IPA solution, 10 mL) [mg/mL] | epimer in solution ([1]; IPA solution, 15 mL) [mg/mL] | epimer in solution ([2]; ACN solution, 5 mL) [mg/mL] | epimer in solution ([2]; ACN solution, 10 mL) [mg/mL] | epimer in solution ([2]; ACN solution, 15 mL) [mg/mL] | epimer in solution ([2]; IPA solution, 5 mL) [mg/mL] | epimer in solution ([2]; IPA solution, 10 mL) [mg/mL] | epimer in solution ([3]; solvent ACN) [mg/mL] | epimer in solution ([3]; solvent EtOAc) [mg/mL] | epimer in solution ([3]; solvent EtOH) [mg/mL] | epimer in solution ([3]; solvent H2O) [mg/mL] | epimer in solution ([3]; solvent IPA) [mg/mL] | epimer in solution ([3]; solvent MEK) [mg/mL] | epimer in solution ([3]; solvent MIBK) [mg/mL] | epimer in solution ([3]; solvent MeOH) [mg/mL] | epimer in solution ([3]; solvent MeTHF) [mg/mL] | further results
1 | C[C@H](NP(=O)(OC[C@H]1O[C@@H](n2ccc(N)nc2=O)C(F)(F)C1O)Oc1ccccc1)C(=O)OCc1ccccc1 (stereo partly shown) [NUC-1031] |  |  |  |  |  |  |  |  |  |  |  |  |  |  |  |  |  |  |  |  | solubility in water (Solubility in water): essentially insoluble in water
2 | C[C@H](N[P@](=O)(OC[C@H]1O[C@@H](n2ccc(N)nc2=O)C(F)(F)C1O)Oc1ccccc1)C(=O)OCc1ccccc1 (single isomer, unassigned; epimer 2) [(S)-epimer] | 9.04 | 8.85 | 9.74 | 17.75 | 12.98 | 7.16 | 11.03 | 11.00 | 10.67 | 18.20 | 12.83 | 10.0 | 1.1 | 15.7 | 0.9 | 13.0 | 3.2 | 1.0 | 35.1 | 1.2 | solubility compared with the (R)-epimer ([3]; in all solvents tested): higher solubility; epimer in solution ([3]; solvent TBME): 0.1 mg/mL; epimer in solution ([3]; solvent THF): 6.6 mg/mL; epimer in solution ([3]; solvent acetone): 7.7 mg/mL; epimer in solution ([3]; solvent iPrOAc): 0.6 mg/mL; epimer in solution ([3]; solvent nBuOH): 14.4 mg/mL; epimer in solution ([3]; solvent nPrOH): 10.8 mg/mL; epimer in solution ([3]; solvent nheptane): 0.4 mg/mL; epimer in solution ([3]; solvent toluene): 0.7 mg/mL; difference in solubility between the (S)-epimer and the (R)-epimer ([4]; in certain solvent mixtures): over 100 fold
3 | C[C@H](N[P@@](=O)(OC[C@H]1O[C@@H](n2ccc(N)nc2=O)C(F)(F)C1O)Oc1ccccc1)C(=O)OCc1ccccc1 (single isomer, unassigned; epimer 2) [(R)-epimer] | 0.67 | 0.59 | 0.63 | 0.77 | 0.77 | 0.58 | 1.01 | 1.09 | 1.19 | 1.42 | 3.38 | 1.1 | 0.7 | 4.9 | 0.5 | 1.6 | 0.9 | 0.7 | 22.8 | 0.6 | half-life relative to that of the (S)-epimer [5]: four times; epimer in solution ([3]; solvent TBME): 0.1 mg/mL; epimer in solution ([3]; solvent THF): 3.0 mg/mL; epimer in solution ([3]; solvent acetone): 2.2 mg/mL; epimer in solution ([3]; solvent iPrOAc): 0.6 mg/mL; epimer in solution ([3]; solvent nBuOH): 1.6 mg/mL; epimer in solution ([3]; solvent nPrOH): 2.2 mg/mL; epimer in solution ([3]; solvent nheptane): 0.4 mg/mL; epimer in solution ([3]; solvent toluene): 0.2 mg/mL; solubility compared with the (S)-epimer ([4]; mixtures of polar organic solvents with water): considerably lower
